Series [1] concerns NCI-H3255 NSCLC cell line (EGFR L858R). The series can be described thus: CellTiter-Glo viability assay, NCI-H3255. Format: cell-based. The settings on record: Homo sapiens, 72 h, read-out: antiproliferative IC50. How it is done: The A431, HCC827, SK-BR-3, ZR-75-30, AU565 and Caco-2 cell lines were obtained from ATCC. The NCI-H1975 cell line was obtained from SIBS. The NCI-H3255 cell line was obtained from CoBioer. Engineered Ba/F3 cell lines were obtained from Crown Bioscience. MCKII-MDR1 cells were obtained from the Netherlands Cancer Institute. HEK293 cells were obtained from Invitrogen. A431 cells were cultured in DMEM (Life Technologies) with 10% FBS. HCC827, NCI-H1975 and AU565 cells were cultured in RPMI1640 (Invitrogen) with 10% FBS. NCI-H3255 cells were cultured in BEGM (Lonza) with 10% FBS. Ba/F3 EGFR-del E746_A750/C797S and Ba/F3 EGFR-L858R/C797S cells were cultured in RPMI (Invitrogen) with 10% FBS. SK-BR-3 cells were cultured in McCoy's 5a (Invitrogen) with 10% FBS. ZR-75-30 cells were cultured in RPMI1640 (Invitrogen) with 20% FBS. BT474 cells were cultured in DMEM (Gibco) with 10% FBS and 10 μg/mL Insulin. Caco-2 and MCKII-MDR1 culture information is given in the permeability studies section. […]
Viability assays using A431, HCC827, NCI-H1975, NCI-H3255, Ba/F3 EGFR-del E746_A750/C797S, Ba/F3 EGFR-L858R/C797S, AU565, SK-BR-3 and ZR-75-30 cells were performed at Crown BioScience. […] Dose-response curves were generated and used to calculate the IC50 values which were calculated on GraphPad Prism from the non-linear regression equation fitted with a sigmoidal dose response and are presented as the mean±SEM.
(ATP-based viability assays read luminescence as a measure of living cells.)

Series [2] concerns Chinese hamster ovary (CHO-K1) cells. The series can be described thus: In vitro micronucleus test. Format: cell-based. The note with it: for concentration to which negative micronucleus result is valid: cytotoxicity above. Here is the method: Compound 15 was assessed for genotoxicity by Eurofins Panlabs. using the in vitro micronucleus test in Chinese hamster ovary (CHO-K1) cells as previously described.^22 Compound 15 was incubated in a 96-well plate format at varying concentrations (8, 16, 31, 62, 125, 250, 500 and 1000 μM) for 4 h at 37° C. with metabolic activation by rat liver S9 and 24 h at 37° C. without metabolic activation by rat liver S9. High content analysis and fluorescence imaging were used to detect micronuclei and compared against positive controls (cyclophosphamide (ran at 7.2 μM) and mitomycin C (ran at 0.3 μM)). Significances of the positive counts between the treatment and control were determined by one-tailed t-test with two sample equal variance.

The nature of series [3]: Oral CNS pharmacokinetics in SD rats. Format: in vivo. The note with it: male, rat, brain and plasma, single oral dose 20 mg/kg, read-out: Kp,uu (unbound brain-to-unbound plasma partitioning coefficient) (AUCinf). How it is done: Animal experiments were performed at Pharmaron Inc. and animal use was approved by Pharmaron's Institutional Animal Care and Use Committee (IACUC) in Pharmaron (Pharmaron IACUC, Protocol #PK-M-07182022, #PK-R-06012022 and #ON-CELL-XEN-06012022) following the guidance of AAALAC. Six- to eight-week-old male SD rats (approximately 200-300 g) obtained from Si Bei Fu Laboratory Animal Technology Co., six- to eight-week-old male CD1 mice (approximately 20-30 g) obtained from Si Bei Fu Laboratory Animal Technology Co., and six- to eight-week-old female BALB/c nude mice (approximately 20-30 g) obtained from Si Bei Fu Laboratory Animal Technology Co., were used in the pharmacokinetic studies. Six- to eight-week-old female BALB/c nude mice (approximately 18-22 g) obtained from Beijing Anikeeper Biotech Co., Ltd were used in the intracranial PDX study. […]
Oral CNS pharmacokinetic assessment of 15 was done by oral gavage (formulation: 1% methylcellulose) followed by blood and brain sampling at 7 time points (0.25, 0.5, 1, 2, 4, 8, 24 h post dose) with n=3 animals per time point (n=21 total). […] Concentrations of 15 in the plasma and brain samples were determined using LC-MS/MS and WinNonlin 8.3 (Phoenix™) was used for pharmacokinetic calculations. […]

This note sets out measurements from patent US20250236596A1, “HYDROXYLAMINE-BASED EGFR INHIBITORS FOR TREATMENT OF CANCER WITH BRAIN METASTASES” (University of Georgia Research Foundation, Inc., priority 2022, published 2025).

SMILES strings stand for the structures. “Also recorded” adds a separate entry of the source.

With `COc1cc2ncnc(Nc3cccc(Cl)c3F)c2cc1OCCON1CCN(C)CC1` [Compound 15, N-(3-chloro-2-fluorophenyl)-7-methoxy-6-(2-((4-methylpiperazin-1-yl)oxy)ethoxy)quinazolin-4-amine], in series [1], the IC50 (commonly the concentration that gives 50% inhibition) amounted to 7.2 nM. Also, the “concentration to which negative micronucleus result is valid” value in series [2] (+rat liver S9) was at most 31 µM; in series [2] (−rat liver S9), at most 8 µM. Also, the “genotoxicity in in vitro micronucleus test” value in series [2] (CHO-K1, with and without rat liver S9) was “negative; also recorded: neither mutagenic nor genotoxic potential”. The Kp,uu (unbound brain-to-unbound plasma partition coefficient) in series [3] amounted to 0.33.
